{"source": "patent US20030105010A1", "about": "“Crystals and structures of ArnB aminotransferases” (priority 2001, published 2003)", "key": {"[1]": {"target": "T1, Salmonella typhimurium ArnB (Salmonella typhimurium, UniProt Q8ZNF3)", "T1 construct": "made in house; host or cells: E. coli BL21 (DE3), vector pSB3 (modified pET26b)", "T1 sequence (Q8ZNF3 whole entry)": "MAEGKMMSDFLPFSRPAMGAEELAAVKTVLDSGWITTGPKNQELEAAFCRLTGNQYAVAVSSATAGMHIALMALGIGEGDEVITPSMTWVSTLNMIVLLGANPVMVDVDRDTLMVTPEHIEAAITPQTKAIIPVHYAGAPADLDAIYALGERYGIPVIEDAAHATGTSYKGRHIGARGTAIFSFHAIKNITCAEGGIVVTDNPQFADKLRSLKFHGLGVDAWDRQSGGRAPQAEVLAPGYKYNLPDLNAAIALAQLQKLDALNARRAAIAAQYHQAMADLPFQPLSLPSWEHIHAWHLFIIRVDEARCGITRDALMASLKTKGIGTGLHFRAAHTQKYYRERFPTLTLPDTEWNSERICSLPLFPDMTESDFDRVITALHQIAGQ", "experiment": "ArnB aminotransfer half-reaction assay (absorbance of PMP/PLP cofactor forms at 340 nm / 430 nm)", "assay_type": "biochemical", "settings": "for conversion of ArnB from the E-PLP form back to the E•PMP form by amino donor: excess amino acid, decrease at 430 nm and increase at 340 nm; for observed rate constant of aminotransfer from L-methionine to E-PLP ArnB: enzyme concentration 23 μM, L-methionine concentration 20 mM", "procedure": "Aminotransfer half-reactions were measured at an enzyme concentration of 23 μM and substrates were added to a final concentration of 250 μM, unless otherwise indicated. Reaction progress was followed by moniotoring the absorbance maxima of the PMP or PLP cofactor forms at 340 nm or 430 nm, respectively. Resulting time courses were fit to eq. 1, describing a single-exponential decay,\nYobs=((Y0−Y∞)e^−kt)+Y∞ (Eq. 1),\nwhere Yobs=observed signal, Y0=signal at time zero, Y∞=signal at infinite time, k is the apparent first-order rate constant, and t is time. Nonlinear least-squares fits were performed with Kaleidagraph v3.51 (Synergy Software, Reading, Pa.)."}, "[2]": {"target": "ArnB from E. coli K12 (Escherichia coli, UniProt P77690)", "sequence (P77690 whole entry)": "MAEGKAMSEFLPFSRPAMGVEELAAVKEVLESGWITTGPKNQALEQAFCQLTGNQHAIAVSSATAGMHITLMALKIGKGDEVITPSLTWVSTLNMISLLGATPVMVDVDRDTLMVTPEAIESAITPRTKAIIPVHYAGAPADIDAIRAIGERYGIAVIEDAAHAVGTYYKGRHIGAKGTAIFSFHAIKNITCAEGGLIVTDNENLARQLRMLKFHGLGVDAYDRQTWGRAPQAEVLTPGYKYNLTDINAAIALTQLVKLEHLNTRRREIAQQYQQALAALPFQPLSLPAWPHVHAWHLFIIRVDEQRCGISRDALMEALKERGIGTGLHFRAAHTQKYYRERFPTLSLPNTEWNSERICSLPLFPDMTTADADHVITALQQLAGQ", "settings": "compared with L-glutamate; cited from earlier work"}, "[3]": {"target": "T1, Salmonella typhimurium ArnB", "experiment": "L-cycloserine inhibition of ArnB followed by cofactor absorbance spectrum", "assay_type": "biochemical"}}, "data": [{"compound": "CSCC[C@@H](N)C(=O)O", "note": "(single isomer, unassigned) [D-isomer of methionine]", "values": [{"measurement": "conversion of ArnB from the E-PLP form back to the E•PMP form by amino donor", "setting": "[1]", "value": "no such effect"}]}, {"compound": "NC(=O)CC[C@H](N)C(=O)O", "note": "[L-glutamine]", "values": [{"measurement": "use as amino donor substrate", "setting": "[2]", "value": "less efficiently than with L-glutamate"}]}, {"compound": "O=C(O)CCCC(=O)C(=O)O", "note": "[α-Ketoadipate]", "values": [{"measurement": "reduction in aminotransfer rate from that of α-ketoglutarate", "setting": "[1]; E•PMP to E-PLP conversion, absorbance increase at 430 nm, α-ketoacid as amino acceptor substrate", "value": 3, "unit": "fold"}]}, {"compound": "N[C@H]1CONC1=O", "note": "[L-cycloserine]", "values": [{"measurement": "reaction with ArnB in the E-PMP form", "setting": "[3]; E-PMP enzyme form", "value": "did not react"}, {"measurement": "inactivation of E-PLP ArnB", "setting": "[3]; excess L-cycloserine, loss of 430 nm internal aldimine peak, appearance of peak centered at 334 nm", "value": "rapidly inactivated"}]}, {"compound": "N[C@@H](CC(=O)O)C(=O)O", "note": "(single isomer, unassigned) [L-isomer of aspartic acid]", "values": [{"measurement": "conversion of ArnB from the E-PLP form back to the E•PMP form by amino donor", "setting": "[1]", "value": "slower rate than L-methionine"}]}, {"compound": "N[C@@H](CCC(=O)O)C(=O)O", "note": "[L-glutamate]", "values": [{"measurement": "conversion of ArnB from the E-PLP form back to the E•PMP form by amino donor", "setting": "[1]", "value": "fastest L-amino acid tested"}]}, {"compound": "CSCC[C@H](N)C(=O)O", "note": "[L-methionine]", "values": [{"measurement": "conversion of ArnB from the E-PLP form back to the E•PMP form by amino donor", "setting": "[1]", "value": "readily converted"}, {"measurement": "observed rate constant of aminotransfer from L-methionine to E-PLP ArnB", "setting": "[1]; measured at 340 nm", "value": "0.065 ± 0.014", "unit": "min⁻¹"}, {"measurement": "observed rate constant of aminotransfer from L-methionine to E-PLP ArnB", "setting": "[1]; measured at 430 nm", "value": "0.051 ± 0.013", "unit": "min⁻¹"}]}]}
